Paper PMC6273036, “N-Alkoxyphenylhydroxynaphthalenecarboxamides and Their Antimycobacterial Activity” (Molecules, 2016)
≈ marks a conversion by molar mass, not a printed value.

Assays:
[1] = tested on: human monocytic leukemia THP-1 cells; assay: In vitro antiproliferative assay (WST-1); details: THP-1, 24 h, read-out: IC50 (antiproliferative activity)
Procedure: Human monocytic leukemia THP-1 cells were used for in vitro antiproliferative assay. Cells were obtained from the European Collection of Cell Cultures (ECACC, Salisbury, UK) and routinely cultured in RPMI 1640 medium supplemented with 10% fetal bovine serum, 2% L-glutamine, 1% penicillin and streptomycin at 37 °C with 5% CO2. Cells were passaged at approximately one-week intervals. Antiproliferative activity of the compounds was determined using a Water Soluble Tetrazolium Salts-1 (WST-1, 2-(4-iodophenyl)-3-(4-nitrophenyl)-5-(2,4-disulfophenyl)-2H-tetrazolium) assay kit (Roche Diagnostics, Mannheim, Germany) according to the manufacturer’s instructions. The tested compounds were dissolved in DMSO and added in five increasing concentrations (0.37, 1.1, 3.3, 10 and 30 μM) to the cell suspension in the culture RPMI 1640 medium. The maximum concentration of DMSO in the assays never exceeded 0.1%. Subsequently, the cells were incubated for 24 h at 37 °C with 5% CO2. For WST-1 assays, cells were seeded into 96-well plates (5 × 10^4 cells/well in 100 μL culture medium) in triplicate in serum-free RPMI 1640 medium, and measurements were taken 24 h after the treatment with the compounds. The median inhibition concentration values, IC50, were deduced through the production of a dose-response curve. All data were evaluated using GraphPad Prism 5.00 software (GraphPad Software, San Diego, CA, USA).

[2] = tested on: Mycobacterium tuberculosis H37Ra ATCC 25177; assay: MTT assay, viability of M. tuberculosis H37Ra; type: cell-based; details: at the tested concentration equal to MICs; 7 days; positive result when viability less than 70%
Procedure: The MTT assay is a well-characterized method of assessing cell growth through measurement of respiration. For the purpose of this assay, a positive result was recorded when the MTT measured viability of M. tuberculosis H37Ra was less than 70% after exposure to the MIC of each test compound.
For the MTT (3-(4,5-dimethylthiazol-2-yl)-2,5-diphenyltetrazolium bromide) assay, the outer wells of a 96-well plate were filled with 200 µL of sterile water, and the inner wells were filled with 100 µL of the tested compound at the MIC to be examined. Compounds were prepared as previously stated and diluted in Middlebrook media to achieve the desired concentration. Mycobacterium tuberculosis H37Ra ATCC 25177 was suspended in ODAC supplemented Middlebrook broth at a MacFarland standard of 1.0 and then diluted 1:20, using Middlebrook broth as a diluent. The diluted mycobacteria (100 µL) were added to each well containing the compound to be tested. A negative growth control was composed of 100 µL of DMSO and 100 µL of the media, and the diluted mycobacteria in broth absent of inhibiting compounds were used as a positive growth control. All compounds and controls were prepared in triplicate. Plates were incubated at 37 °C for 7 days. After the incubation period, 10% well volume of MTT reagent was mixed into each well and incubated at 37 °C for 24 h. The reagent and media were then aspirated from the wells, to which 50 µL 99% isopropanol was then added, and the plates were read at 570 nm. The absorbance readings from the cells, grown in the presence of the tested compounds, were compared with uninhibited cell growth (using DMSO as the blank) to determine the relative percent viability. The percent viability was determined through the MTT assay. The percent viability is calculated through comparison of a measured value against that of the uninhibited control: %viability = OD570E/OD570P × 100, where OD570E is the reading from the compound-exposed cells, while OD570P is the reading from the uninhibited cells (positive control). Cytotoxic potential is determined by a percent viability of <70%.

[3] = tested on: M. smegmatis ATCC 700084; assay: In vitro antimycobacterial evaluation (broth dilution micro-method, MIC) against M. smegmatis; type: cell-based; details: Mycolicibacterium smegmatis, ATCC700084, 72 h; Mycobacterium smegmatis ATCC 700084; MIC = IC90; 3 days incubation, visual
[4] = tested on: Mycobacterium tuberculosis H37Ra ATCC 25177; assay: In vitro antimycobacterial evaluation (alamarBlue, MIC) against M. tuberculosis; type: cell-based; details: 168 h, M. tuberculosis H37Ra ATCC 25177, MIC = 90% or greater (IC90) reduction of growth, 7 days
Procedure: The evaluation of the in vitro antimycobacterial activity of the compounds was performed against Mycobacterium tuberculosis H37Ra ATCC 25177 (MT), M. kansasii DSM 44162 (MK) and M. smegmatis ATCC 700084 (MS), see Table 1. To lower risk and make manipulation in the laboratory easier, surrogate model pathogens for M. tuberculosis can be used in laboratory studies. Avirulent M. tuberculosis strain H37Ra is very closely related to and has similar pathology as human-infecting M. tuberculosis strains, making it a good model for study especially because of the lower risk for laboratory workers. M. kansasii, the most virulent of the NTM, causes nontuberculous mycobacterial lung infections, which are now very common, and can be indistinguishable from tuberculosis. M. smegmatis is an ideal representative of a fast-growing nonpathogenic microorganism, particularly useful in studying basic cellular processes of special relevance to pathogenic mycobacteria. Therefore additionally M. kansasii and M. smegmatis were chosen as model species for screening of prospective antimycobacterial drugs to control mycobacterial diseases. The potency of the compounds was expressed as the minimum inhibitory concentration (MIC) that is defined for mycobacteria as 90% or greater (IC90) reduction of growth in comparison with the control.
Mycobacterium tuberculosis H37Ra ATCC 25177 was grown in Middlebrook broth (MB), supplemented with Oleic-Albumin-Dextrose-Catalase (OADC) supplement (Becton, Dickinson & Comp., Franklin Lakes, NJ, USA) and mycobactin J (2 μg/mL). At log phase growth, a culture sample (10 mL) was centrifuged at 15,000 rpm/20 min using a bench top centrifuge (Model CR 4-12, Jouan Inc., Winchester, VA, USA). Following the removal of the supernatant, the pellet was washed in fresh Middlebrook 7H9GC broth and re-suspended in fresh, ODAC-supplemented MB (10 mL). The turbidity was adjusted to match McFarland standard No. 1 (3 × 10^8 cfu) with MB broth. A further 1:20 dilution of the culture was then performed in MB broth. The antimicrobial susceptibility of M. tuberculosis was investigated in a 96-well plate format. In these experiments, sterile deionised water (300 µL) was added to all outer-perimeter wells of the plates to minimize evaporation of the medium in the test wells during incubation. Each evaluated compound (100 µL) was incubated with M. tuberculosis (100 µL). Dilutions of each compound were prepared in duplicate. For all synthesized compounds, final concentrations ranged from 1000 μg/mL to 8 μg/mL. All compounds were dissolved in DMSO, and subsequent dilutions were made in supplemented MB. The plates were sealed with parafilm and incubated at 37 °C for 7 days. Following incubation, a 10% addition of alamarBlue (AbD Serotec, Kidlington, UK) was mixed into each well, and readings at 570 nm and 600 nm were taken, initially for background subtraction and subsequently after 24 h re-incubation. The background subtraction is necessary for strongly coloured compounds, where the colour may interfere with the interpretation of any colour change. For non-interfering compounds, a blue colour in the well was interpreted as the absence of growth, and a pink colour was scored as growth.
The minimum inhibitory concentration (MIC) was defined as the lowest concentration of the compound at which no visible bacterial growth was observed, i.e., the MIC is the lowest concentration that prevented a visual colour change from blue to pink. MIC is defined for mycobacteria as 90% or greater (IC90) reduction of growth in comparison with the control. The MIC/IC90 value is routinely and widely used in bacterial assays and is a standard detection limit according to the Clinical and Laboratory Standards Institute (CLSI, www.clsi.org). Rifampicin and isoniazid (Sigma-Aldrich) were used as the standards as they are clinically used antimycobacterial drugs.

[5] = tested on: Mycobacterium kansasii DSM 44162; assay: In vitro antimycobacterial evaluation (broth dilution micro-method, MIC) against M. kansasii; type: cell-based; details: DSM44162, 168 h, M. kansasii DSM 44162, MIC = IC90, 7 days incubation, visual

Row | Structure (SMILES) | IC50 [1] | viability of M. tuberculosis H37Ra (MTT) [2] | MIC [3] | MIC [4] | MIC [5]
1 | CCCCOc1cccc(NC(=O)c2ccc3ccccc3c2O)c1 [Compound 12b, N-(3-Butoxyphenyl)-1-hydroxynaphthalene-2-carboxamide] | 1.8 ± 0.32 µM | 9.96% | 190 µM (≈ 63.7 µg/mL) | 23 µM (≈ 7.71 µg/mL) | 47 µM (≈ 15.8 µg/mL)
2 | CCC(C)Oc1ccc(NC(=O)c2c(O)ccc3ccccc23)cc1 (stereo not shown) [Compound 7c, N-[4-(But-2-yloxy)phenyl]-2-hydroxynaphthalene-1-carboxamide] | > 30 µM | 8.86% | 12 µM (≈ 4.02 µg/mL) | 23 µM (≈ 7.71 µg/mL) | 95 µM (≈ 31.9 µg/mL)
3 | CCCCOc1cccc(NC(=O)c2c(O)ccc3ccccc23)c1 [Compound 5b, N-(3-Butoxyphenyl)-2-hydroxynaphthalene-1-carboxamide] | > 30 µM | 7.38% | 381 µM (≈ 128 µg/mL) | 23 µM (≈ 7.71 µg/mL) | 190 µM (≈ 63.7 µg/mL)
4 | CCCOc1ccc(NC(=O)c2c(O)ccc3ccccc23)cc1 [Compound 4c, 2-Hydroxy-N-(4-propoxyphenyl)naphthalene-1-carboxamide] | > 30 µM | 5.90% | 398 µM (≈ 128 µg/mL) | 12 µM (≈ 3.86 µg/mL) | 99 µM (≈ 31.8 µg/mL)
5 | CC(C)Oc1cccc(NC(=O)c2c(O)ccc3ccccc23)c1 [Compound 6b, 2-Hydroxy-N-[3-(prop-2-yloxy)phenyl]naphthalene-1-carboxamide] | 8.84 ± 0.22 µM | – | 398 µM (≈ 128 µg/mL) | 778 µM (≈ 250 µg/mL) | 199 µM (≈ 64 µg/mL)
6 | CO[C@H]1/C=C/O[C@@]2(C)Oc3c(C)c(O)c4c(O)c(c(/C=N/N5CCN(C)CC5)c(O)c4c3C2=O)NC(=O)/C(C)=C\C=C\[C@H](C)[C@H](O)[C@@H](C)[C@@H](O)[C@@H](C)[C@H](OC(C)=O)[C@@H]1C [RIF, rifampicin, reference compound] | > 30 µM | – | 19 µM (≈ 15.6 µg/mL) | 10 µM (≈ 8.23 µg/mL) | 0.15 µM (≈ 0.123 µg/mL)
7 | CCC(C)Oc1cccc(NC(=O)c2ccc3ccccc3c2O)c1 (stereo not shown) [Compound 14b, N-[3-(But-2-yloxy)phenyl]-1-hydroxynaphthalene-2-carboxamide] | 1.17 ± 0.38 µM | 9.96% | 12 µM (≈ 4.02 µg/mL) | 23 µM (≈ 7.71 µg/mL) | 47 µM (≈ 15.8 µg/mL)
8 | CCCOc1cccc(NC(=O)c2ccc3ccccc3c2O)c1 [Compound 11b, 1-Hydroxy-N-(3-propoxyphenyl)naphthalene-2-carboxamide] | 1.37 ± 0.72 µM | 15.13% | 199 µM (≈ 64 µg/mL) | 24 µM (≈ 7.71 µg/mL) | 49 µM (≈ 15.7 µg/mL)
9 | CCCCOc1ccc(NC(=O)c2c(O)ccc3ccccc23)cc1 [Compound 5c, N-(4-Butoxyphenyl)-2-hydroxynaphthalene-1-carboxamide] | > 30 µM | – | 763 µM (≈ 256 µg/mL) | 745 µM (≈ 250 µg/mL) | 95 µM (≈ 31.9 µg/mL)
10 | CCCCOc1ccccc1NC(=O)c1c(O)ccc2ccccc12 [Compound 5a, N-(2-Butoxyphenyl)-2-hydroxynaphthalene-1-carboxamide] | > 30 µM | – | 763 µM (≈ 256 µg/mL) | 745 µM (≈ 250 µg/mL) | 763 µM (≈ 256 µg/mL)
11 | CCOc1ccc(NC(=O)c2c(O)ccc3ccccc23)cc1 [Compound 3c] | > 30 µM | 9.96% | 832 µM (≈ 256 µg/mL) | 26 µM (≈ 7.99 µg/mL) | 104 µM (≈ 32 µg/mL)
12 | CCC(C)Oc1ccccc1NC(=O)c1ccc2ccccc2c1O (stereo not shown) [Compound 14a, N-[2-(But-2-yloxy)phenyl]-1-hydroxynaphthalene-2-carboxamide] | 9.03 ± 1.18 µM | – | 763 µM (≈ 256 µg/mL) | 745 µM (≈ 250 µg/mL) | 47 µM (≈ 15.8 µg/mL)
13 | CC(C)Oc1ccc(NC(=O)c2c(O)ccc3ccccc23)cc1 [Compound 6c, 2-Hydroxy-N-[4-(prop-2-yloxy)phenyl]naphthalene-1-carboxamide] | > 30 µM | 8.96% | 796 µM (≈ 256 µg/mL) | 25 µM (≈ 8.03 µg/mL) | 99 µM (≈ 31.8 µg/mL)
14 | CCCOc1cccc(NC(=O)c2c(O)ccc3ccccc23)c1 [Compound 4b, 2-Hydroxy-N-(3-propoxyphenyl)naphthalene-1-carboxamide] | 8.97 ± 0.34 µM | – | 398 µM (≈ 128 µg/mL) | 46 µM (≈ 14.8 µg/mL) | 199 µM (≈ 64 µg/mL)
15 | CCC(C)Oc1ccc(NC(=O)c2ccc3ccccc3c2O)cc1 (stereo not shown) [Compound 14c, N-[4-(But-2-yloxy)phenyl]-1-hydroxynaphthalene-2-carboxamide] | 3.41 ± 0.41 µM | – | 12 µM (≈ 4.02 µg/mL) | 745 µM (≈ 250 µg/mL) | 23 µM (≈ 7.71 µg/mL)
16 | CCCCOc1ccc(NC(=O)c2ccc3ccccc3c2O)cc1 [Compound 12c, N-(4-Butoxyphenyl)-1-hydroxynaphthalene-2-carboxamide] | > 30 µM | – | 763 µM (≈ 256 µg/mL) | 745 µM (≈ 250 µg/mL) | 23 µM (≈ 7.71 µg/mL)
17 | CCCOc1ccccc1NC(=O)c1c(O)ccc2ccccc12 [Compound 4a, 2-Hydroxy-N-(2-propoxyphenyl)naphthalene-1-carboxamide] | > 30 µM | – | 796 µM (≈ 256 µg/mL) | 37 µM (≈ 11.9 µg/mL) | 99 µM (≈ 31.8 µg/mL)
18 | CCC(C)Oc1ccccc1NC(=O)c1c(O)ccc2ccccc12 (stereo not shown) [Compound 7a, N-[2-(But-2-yloxy)phenyl]-2-hydroxynaphthalene-1-carboxamide] | 8.35 ± 1.25 µM | – | 763 µM (≈ 256 µg/mL) | 44 µM (≈ 14.8 µg/mL) | 95 µM (≈ 31.9 µg/mL)
19 | CC(C)Oc1cccc(NC(=O)c2ccc3ccccc3c2O)c1 [Compound 13b, 1-Hydroxy-N-[3-(prop-2-yloxy)phenyl]naphthalene-2-carboxamide] | 4.32 ± 0.74 µM | – | 796 µM (≈ 256 µg/mL) | 389 µM (≈ 125 µg/mL) | 796 µM (≈ 256 µg/mL)
20 | CCCOc1ccc(NC(=O)c2ccc3ccccc3c2O)cc1 [Compound 11c, 1-Hydroxy-N-(4-propoxyphenyl)naphthalene-2-carboxamide] | > 30 µM | – | 796 µM (≈ 256 µg/mL) | 778 µM (≈ 250 µg/mL) | 24 µM (≈ 7.71 µg/mL)
